Results published in patent US20030109501A1, “High throughput assay for N-sulfotransferase activity of glucosaminyl N-deacetylase/N-sulfotransferases” (priority 2001, published 2003).

Experiments:
Format in all cases: biochemical
[1] = target: T1, recombinant human wild-type NDST-2 (Homo sapiens, UniProt P52849); experiment: Solid phase SPA assay for N-sulfotransferase activity (wild-type NDST-2); details: wild-type NDST-2 0.4 μg/well, fully desulfated heparin pre-coated WGA-SPA beads, 35[S]-PAPS 10 nCi/well, room temperature 5 h
T1 construct: the DNA fragment consisting of nucleotides 133-2651 of the human NDST-2 cDNA; made in house; host or cells: DG44 CHO cells (secreted, harvested from supernatant)
T1 sequence (P52849 40-883 limits assumed): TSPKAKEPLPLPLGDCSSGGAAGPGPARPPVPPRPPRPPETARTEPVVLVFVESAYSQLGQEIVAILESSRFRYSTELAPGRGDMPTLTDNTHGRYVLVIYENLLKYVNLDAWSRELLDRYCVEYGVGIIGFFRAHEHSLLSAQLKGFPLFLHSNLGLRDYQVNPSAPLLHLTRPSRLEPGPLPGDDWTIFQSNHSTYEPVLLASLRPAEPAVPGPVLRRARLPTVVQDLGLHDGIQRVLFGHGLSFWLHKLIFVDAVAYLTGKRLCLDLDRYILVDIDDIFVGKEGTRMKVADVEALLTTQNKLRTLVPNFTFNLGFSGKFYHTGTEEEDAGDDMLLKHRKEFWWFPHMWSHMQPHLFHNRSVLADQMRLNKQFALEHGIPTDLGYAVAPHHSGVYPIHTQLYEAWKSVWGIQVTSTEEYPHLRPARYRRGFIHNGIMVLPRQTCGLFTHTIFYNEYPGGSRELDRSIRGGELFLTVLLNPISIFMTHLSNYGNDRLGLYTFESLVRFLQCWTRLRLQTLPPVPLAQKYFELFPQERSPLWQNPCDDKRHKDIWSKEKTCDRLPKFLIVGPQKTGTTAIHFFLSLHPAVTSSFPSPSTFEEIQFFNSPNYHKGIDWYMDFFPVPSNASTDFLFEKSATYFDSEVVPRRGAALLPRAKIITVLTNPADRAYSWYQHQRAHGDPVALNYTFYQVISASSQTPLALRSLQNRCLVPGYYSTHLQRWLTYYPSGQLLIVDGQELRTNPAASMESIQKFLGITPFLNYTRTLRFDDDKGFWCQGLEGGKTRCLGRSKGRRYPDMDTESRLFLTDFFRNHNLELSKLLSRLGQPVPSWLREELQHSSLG
Protocol: (§1) The assays were conducted at room temperature in Reaction Buffer whose components were described in Example 3. The following components were added into the wells of a 96-well white plate (29444-020, Corning, N.Y.) at a final volume of 100 μl/well.
(§2) 1. 25 μl of the Reaction Buffer.
(§3) 2. 25 μl of desulfated heparin-coated beads (20 mg/ml, 500 μg/well).
(§4) 3. 25 μl of enzyme (ST2, 0.1 mg/ml, 2.5 μg/well or NDST-2, 17.6 μg/ml, 0.44 μg/well) and the plate was incubated on a shaker with slight agitation for 2 min.
(§5) 4. 25 μl of ^35[S]-PAPS (NEG-010, 0.832 mCi/ml, NEN Life Science, Boston, Mass.) (0.4 μCi/ml, 10 nCi/well).
The plate was sealed and incubated for 2-24 h. Radioactivity of the plate was then read in a Packard TopCount microplate scintillation counter (Packard Instrument, Downers Grove, Ill.). […]
(§6) A list of 335 compounds was obtained from a search of the Bristol-Myers Squibb inventoried database using the PHASE program and the bound conformation of PAPS taken from the NDST-1 crystal structure [Kakuta, Y. et al. (1999) J. Biol. Chem. 274, 10673-10676]. […] Percentage of inhibition was determined by equation; % Inhibition=(1-cpm with compound/cpm without compound)×100. […]
Compound A (FIGS. 6A and C) and Compound B (FIGS. 6B and D) in DMSO were added into 96-well white plates at the indicated concentrations. […] The plates were read in the TopCount microplate scintillation counter. […]

[2] = target: T2, recombinant human sulfotransferase domain of NDST-2 (ST2) (Homo sapiens, UniProt P52849); experiment: Solid phase SPA assay for N-sulfotransferase activity (ST2); details: ST2 2.5 μg/well, room temperature 5 h; for IC50: fully desulfated heparin pre-coated WGA-SPA beads, 35[S]-PAPS 10 nCi/well
T2 construct: subcloning the N-sulfotransferase domain of NDST-2 from the vector pFASTBac-GST-NDST-2; made in house; host or cells: E. coli BL21(DE3)pLysS
T2 sequence (P52849 598-883 limits assumed): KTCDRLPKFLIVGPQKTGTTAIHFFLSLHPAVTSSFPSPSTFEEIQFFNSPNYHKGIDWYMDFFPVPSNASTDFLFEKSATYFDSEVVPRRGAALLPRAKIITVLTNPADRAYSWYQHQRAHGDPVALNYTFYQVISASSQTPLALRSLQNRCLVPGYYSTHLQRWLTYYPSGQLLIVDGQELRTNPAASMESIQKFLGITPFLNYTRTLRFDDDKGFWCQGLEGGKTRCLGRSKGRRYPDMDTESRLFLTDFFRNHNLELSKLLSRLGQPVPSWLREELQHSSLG
Protocol: as §1, §2, §3, §4, §5
The plate was sealed and incubated for 2-24 h. Radioactivity of the plate was then read in a Packard TopCount microplate scintillation counter (Packard Instrument, Downers Grove, Ill.). The signal-to-noise ratio is the result of counts-per-minute (CPM) in the presence of enzyme divided by counts-per-minute in the absence of enzyme.
as §6, with “10673-10676]. The PHASE program is an internally developed program for database searches based on ligand molecular shape and pharmacophroic elements.” for “10673-10676].”
The plate was incubated at room temperature and 5 h. The plate was read in the TopCount scintillation counter. […] The Km of PAPS is determined as a PAPS concentration by using the Michaelis-Menten equation: y=5×10^−5x+5×10^−5.
Compound A (FIGS. 6A and C) and Compound B (FIGS. 6B and D) in DMSO were added into 96-well white plates at the indicated concentrations. […] The plates were read in the TopCount microplate scintillation counter. Percentage of inhibition was determined by the following equation: % Inhibition=(1-cpm with compound/cpm without compound)×100. IC50 was determined by the Microsoft XLfit program.

[3] = target: T3, recombinant human NDST-2 (wild-type) (Homo sapiens, UniProt P52849); experiment: Manual sulfotransferase assay; details: final concentration of 6.25 μM; N-acetyl-de-O-sulfated heparin acceptor, 37° C. for 30 min; read-out: percent inhibition of N-sulfotransferase activity
T3 construct: the DNA fragment consisting of nucleotides 133-2651 of the human NDST-2 cDNA; made in house; host or cells: DG44 CHO cells (secreted, harvested from supernatant)
T3 sequence (P52849 40-883 limits assumed): T1 sequence (P52849 40-883 limits assumed)
Protocol: The manual sulfotransferase assays were conducted basically as described by Pettersson [Pettersson, I. et al. (1991) J. Biol. Chem. 266, 8044-8049; which is hereby incorporated herein by reference]. The following components were added into Eppendorf vials at a final volume of 200 μl/vial.
1. 119 μl of the Reaction Buffer whose components are described in EXAMPLE 3 herein
2. 1 μl of N-acetyl-de-O-sulfated heparin used as a sulfate acceptor (A6039, Sigma, 25 mg/ml, […]).
3. 20 μl of enzyme NDST-2 (17.6 μg/ml, […]).
4. 50 μl of test compounds (compound-treated reaction, 25 μM, 6.25 μM/vial) or 50 μl of 10% DMSO in reaction buffer (untreated reaction).
5. 10 μl of ^35[S]-PAPS used as a sulfate donor (2 μCi/ml, 100 nCi/vial).
All vials were incubated at 37° C. for 30 min. Reactions were stopped by the addition of 400 μl of 100% ethanol and 35 μl of 3 M sodium acetate into the vials. The samples were placed on dry ice for 5 min and then centrifuged at speed of 14,000 rpm for 5 min. The supernatants were discarded while the pellets were washed twice with 70% ethanol and then dissolved in 100 μl of water. […] Radioactivity was determined in a Beckman model LS 3800 scintillation counter (Beckman Coulter, Fullerton, Calif.). […]

## O=P(O)(O)CC(Cc1ccc(Cl)cc1)CP(=O)(O)O [Compound A]
[1]
  IC50: ~1.72 µM
[2]
  IC50: ~0.399 µM
[3]
  inhibition at 6.25 µM: 94.7%

## CC(C)c1ccc(O)c(CN(CP(=O)(O)O)CP(=O)(O)O)c1 [Compound B]
[1]
  IC50: ~2.44 µM
[2]
  IC50: ~0.52 µM
[3]
  inhibition at 6.25 µM: 64.8%

## Nc1ncnc2c1ncn2[C@@H]1O[C@H](COP(=O)(O)OS(=O)(=O)O)[C@@H](OP(=O)(O)O)[C@H]1O [PAPS, adenosine 3′-phosphate 5′-phosphosulfate, reference compound]
[2]; double-reciprocal plot, read-out: Km of PAPS
  Km: ~1 µM
